Series [1] relates to human lymphocyte cell proliferation. The experiment in a line: Human lymphocyte cell proliferation (FIG. 1 legend). It counts as cell-based. The note with it: concentration of 100 μM.
The nature of series [2]: Long-term stability, 18 months storage, HPLC. The series is classed as physicochemical. How it is done:
HPLC: HPLC was performed with a Dionex UltiMate® 3000 liquid chromatograph comprising a solvent Rack, a vacuum degasser, a binary pump (mikro), a static mixer (500 μl), an autosampler, a 25 μl sample loop, a 100 μl syringe, a column oven and a DAD detector (semimicro measuring cell), which was set up for UV analysis. Data analysis was done with Chromeleon® 6.80 SP3. Compounds were separated at 30° C. on a Phenomenex Onyx™ Monolithic C18 50×2 mm column. The injection volume was 2 μl and the detection wavelength was 305 nm. As mobile phase, a gradient of 0.1% formic acid in HPLC grade water/acetonitrile was used, starting at a concentration of 5% acetonitrile. The starting concentration was held for 1 minute, then the gradient was ramped linearly to 95% acetonitrile over the course of 2 min, held for 0.7 min at 95% acetonitrile, after which it was returned to 5% acetonitrile within 0.1 min and kept constant for 0.7 min to re-equilibrate the column. The mobile phase flow rate was 1.5 ml/min.
The compounds were stored for 18 months at ambient conditions (20-25° C., 30-60% relative humidity) and subsequently analysed by HPLC for purity.

A short description of series [3]: Dynamic vapor sorption (water uptake). The series is classed as physicochemical. The conditions noted are these: for % water uptake at 85% r.h.: about 85% r.h. From the text: DVS (SMS): Surface Measurement Systems Ltd. DVS-1 water vapour sorption analyzer. The sample is placed on a platinum sample pan and allowed to equilibrate at a given relative humidity (r.h.), usually 50% r.h. Then, a pre-defined humidity program was started with a scanning rate of 5% r.h. change per hour. First step: from 50% r.h. to 0% r.h. (in case of a possibly hydrate as starting material 50 to 95% r.h.), second step: from 0% to 95% r.h. (in case of a possibly hydrate as starting material 95 to 0% r.h.)

Series [4] deals with T1, recombinant murine DHODH (Mus musculus, UniProt O35435).
T1 construct: Prof; M. Löffler, Marburg, Germany (gift)
T1 sequence (O35435 whole entry): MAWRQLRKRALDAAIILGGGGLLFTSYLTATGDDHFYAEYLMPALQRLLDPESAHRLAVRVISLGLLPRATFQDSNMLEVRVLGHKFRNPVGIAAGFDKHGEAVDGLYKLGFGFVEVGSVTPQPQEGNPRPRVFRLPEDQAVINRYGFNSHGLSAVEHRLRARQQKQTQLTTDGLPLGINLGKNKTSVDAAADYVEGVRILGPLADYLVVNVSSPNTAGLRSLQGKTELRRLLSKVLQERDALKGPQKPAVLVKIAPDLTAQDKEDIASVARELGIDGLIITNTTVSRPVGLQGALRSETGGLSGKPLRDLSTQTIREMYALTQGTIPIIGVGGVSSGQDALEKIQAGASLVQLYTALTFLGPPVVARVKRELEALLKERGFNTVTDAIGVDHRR
The experiment in a line: Inhibition assay of DHODH activity (murine enzyme). The series is classed as biochemical. The note with it: class symbols, key in nM. How it is done:
(§1) The standard assay mixture contained 50 μM decyclo ubichinone, 100 μM dihydroorotate, 60 μM 2,6-dichloroindophenol, as well as 20 mU DHODH. The volume activity of the recombinant enzyme used was 30 U/ml. Measurements were conducted in 50 mM TrisHCl (150 mM KCl, 0.1% Triton X-100, pH 8.0) at 30° C. in a final volume of 1 ml. The components were mixed, and the reaction was started by adding dihydroorotate. The course of reaction was followed by spectrophotometrically measuring the decrease in absorption at 600 nm for […].
(§2) Inhibitory studies were conducted in a standard assay with additional variable amounts of inhibitor. […] These investigations were carried out with recombinant human as well as with recombinant murine DHODH provided by Prof. M. Löffler, Marburg, Germany [M. Löffler, Chem. Biol. Interact.

For series [5], the system named is Human peripheral blood mononuclear cells (PBMC), T-cell proliferation. The series is described as follows: Proliferation assay of human T-cells (PHA-stimulated PBMC, BrdU ELISA). It counts as cell-based. The conditions noted are these: PHA 20 μg/ml, 48 hours. The protocol:
Human peripheral blood mononuclear cells (PBMC) were obtained from healthy volunteers and transferred to RPM11640 cell culture medium containing 10% dialyzed fetal calf serum. 80,000 cells per well were pipetted into a 96-well plate and phytohemagglutinin (PHA) was added in phosphate buffered saline to a final concentration of 20 μg/ml to stimulate T-cell proliferation. Vidofludimus was added in dimethyl sulfoxide (DMSO, final concentration: 0.1 Vol %) to final concentrations ranging from 20 nM to 50 μM. After incubation for 48 hours, cell proliferation was quantified using the “cell proliferation ELISA BrdU” (Roche) according to the manufacturer's instructions. […] (see FIG. 1).
A general note: Uptake of a labelled nucleoside into DNA is a usual measure of proliferation.

The target of series [6] is T2, recombinant human DHODH (Homo sapiens, UniProt Q02127).
T2 construct: Prof; M. Löffler, Marburg, Germany (gift)
T2 sequence (Q02127 whole entry): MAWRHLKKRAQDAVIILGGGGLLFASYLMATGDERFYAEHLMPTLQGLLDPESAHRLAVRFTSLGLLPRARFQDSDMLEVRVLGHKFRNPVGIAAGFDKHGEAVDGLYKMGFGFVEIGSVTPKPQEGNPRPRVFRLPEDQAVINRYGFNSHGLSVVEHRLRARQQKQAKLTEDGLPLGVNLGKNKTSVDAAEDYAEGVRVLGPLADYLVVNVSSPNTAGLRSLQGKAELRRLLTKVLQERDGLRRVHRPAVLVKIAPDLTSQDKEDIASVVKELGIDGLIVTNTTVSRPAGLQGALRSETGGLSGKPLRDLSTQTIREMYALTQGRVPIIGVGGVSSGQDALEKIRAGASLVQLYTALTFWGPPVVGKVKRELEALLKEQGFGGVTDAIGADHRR
The experiment in a line: Inhibition assay of DHODH activity (human enzyme). It counts as biochemical. The note with it: recombinant human DHODH; class symbols, key in nM; read-out: human IC50-Value. The protocol: as §1, §2

Series [7] deals with DHODH (Rattus norvegicus, UniProt Q63707). The experiment in a line: Inhibition assay of DHODH activity (column headed 'rate'). It counts as biochemical. The note with it: class symbols, key in nM. The protocol:
as §1, §2

Series [8] is described as follows: Aqueous solubility and pH of the saturated solution. It counts as physicochemical. How it is done: Solubility: Solubility was determined by a stepwise addition of 0.05 mL portions of solvent to a suspension of 10 mg of sample in 0.05 mL of solvent.
The aqueous solubility of the respective compound was determined by HPLC, and the pH of the resulting saturated solution was measured. For each compound tested, a suspension was prepared and equilibrated for 24 hours at 25° C. The suspension was filtered, the filtrate was diluted and analysed by HPLC.

Consider four compounds from patent US20120035175A1, “Novel salts as Anti-Inflammatory, Immunomodulatory and Anti-Proliferatory Agents” (4SC AG, priority 2010, published 2012).

Sequence of DHODH (Q63707 whole entry): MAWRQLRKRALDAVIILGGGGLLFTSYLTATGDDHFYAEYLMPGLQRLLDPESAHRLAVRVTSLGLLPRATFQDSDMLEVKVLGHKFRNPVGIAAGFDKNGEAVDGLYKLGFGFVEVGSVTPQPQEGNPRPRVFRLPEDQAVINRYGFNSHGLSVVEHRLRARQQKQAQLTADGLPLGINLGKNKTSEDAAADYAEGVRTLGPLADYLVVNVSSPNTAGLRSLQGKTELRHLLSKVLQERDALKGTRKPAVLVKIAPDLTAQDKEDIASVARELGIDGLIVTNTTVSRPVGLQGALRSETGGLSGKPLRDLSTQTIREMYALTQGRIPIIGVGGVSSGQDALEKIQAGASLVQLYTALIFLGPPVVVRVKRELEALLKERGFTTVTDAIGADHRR

Regarding `O=C(O)C1=C(C(=O)Nc2ccc(-c3ccccc3)cc2)CCC1` [2-(Biphenyl-4-ylcarbamoyl)-cyclopent-1-enecarboxylic acid], in series [1], the “Reduction of human lymphocyte cell proliferation” value is listed as “Reduction of human lymphocyte cell proliferation”.
`COc1cccc(-c2ccc(NC(=O)C3=C(C(=O)O)CCC3)c(F)c2)c1` [Compound 26, 2-((3-fluoro-3′-methoxy-[1,1′-biphenyl]-4-yl)carbamoyl)cyclopent-1-enecarboxylic acid] showed a Peak area in series [2] (HPLC after 18 months storage at ambient conditions (20-25° C., 30-60% relative humidity)) above 99%. The “Occurrence of hydrolysis product in HPLC after 18 months storage” value in series [2] (ambient conditions (20-25° C., 30-60% relative humidity), LOD for hydrolysis product: 0.1 μg/ml) was “Below LOD*”. Further, the “% water uptake at 95% r.h.” value in series [3] is 0.1%. In addition, the “% water uptake at 85% r.h.” value in series [3] is recorded as 0.03%. Besides, the IC50 (commonly the point on the concentration scale where inhibition reaches its midpoint) is above 1500 nM in series [4] and 4100 nM in series [5].
Take `COc1ccccc1-c1cc(F)c(NC(=O)C2=C(C(=O)O)COC2)c(F)c1` [Compound 47, 4-((3,5-difluoro-2′-methoxy-[1,1′-biphenyl]-4-yl)carbamoyl)-2,5-dihydrofuran-3-carboxylic acid]: the IC50 in series [6] is below 800 nM; in series [4], above 1500 nM; in series [7], below 800 nM.
Regarding `[O-][n+]1ccccc1[S-].[O-][n+]1ccccc1[S-].[Zn+2]` [Zinc salt], in series [3], the “% water uptake at 95% r.h.” value is listed as 5.5% and the “% water uptake at 85% r.h.” value was 4%. In series [8] (aqueous, suspension equilibrated for 24 hours at 25° C.), the Solubility (usually how much of the substance goes into solution per volume) is 950 µg/mL. In series [8] (pH of the resulting saturated solution), this compound gave a pH of 6.3.
